The results in this text go back to US9399649B2, “Compounds for treating spinal muscular atrophy” (PTC Therapeutics Inc., priority 2012, dated 2016).

The test deals with full length and Δ7 SMN2 mRNA. The test can be described thus: Endogenous SMN2 mRNA RT-qPCR splicing assay in cultured cells. The format is cell-based, human. To be noted: Type 1 SMA patient fibroblasts (GM03813), increasing concentrations, 24 hr, FIG. 4. The procedure: The reverse transcription-quantitative PCR-based (RT-qPCR) assay is used to quantify the levels of the full length and Δ7 SMN2 mRNA in primary cells and cell lines containing the SMN2 gene treated with a test compound.
GM03813 SMA patient cells (5,000 cells/well) are seeded in 200 μL, of cell culture medium (DMEM plus 10% FBS) in 96-well flat-bottom plates and the plate is immediately swirled to ensure proper dispersal of cells, forming an even monolayer of cells. Cells are allowed to attach for at least 4-6 hrs. Test compounds are serially diluted 3.16-fold in 100% DMSO to generate a 7-point concentration curve. A solution of test compound (1 μL, 200× in DMSO) is added to each test well and 1 μL, DMSO is added to each control well. The plate is incubated for 24 hrs in a cell culture incubator (37° C., 5% CO2, 100% relative humidity). The cells are then lysed in Cells-To-Ct lysis buffer and the lysate is stored at 80° C.
SMN2-specific spliced products and GAPDH mRNA are identified using the following primers and probes in Table 5. Primer SMN FL Forward B (SEQ ID NO. 7) hybridizes to a nucleotide sequence in exon 7 (nucleotide 32 to nucleotide 54) and exon 8 (nucleotide 1 to nucleotide 4), primer SMN Δ7 Forward B (SEQ ID NO. 8) hybridizes to a nucleotide sequence in exon 6 (nucleotide 87 to nucleotide 111) and exon 8 (nucleotide 1 to nucleotide 3), primer SMN Reverse B (SEQ ID NO. 9) hybridizes to a nucleotide sequence in exon 8 (nucleotide 39 to nucleotide 62), probe SMN Probe B (SEQ ID NO. 10) hybridizes to a nucleotide sequence in exon 8 (nucleotide 7 to nucleotide 36). These primers and probe hybridize to nucleotide sequences common to human SMN1 and SMN2 mRNA. Since the SMA patient cells used in Example 3 contain only the SMN2 gene, RT-qPCR can quantify only SMN2 full-length and Δ7 mRNA.
The SMN forward and reverse primers are used at final concentrations of 0.4 μM. The SMN probe is used at a final concentration of 0.15 μM. GAPDH primers are used at final concentrations of 0.1 μM and the probe at 0.075 μM. The One-Step RT-PCR kit was used as the Real-Time PCR Mix. […]
The increase of SMN2 FL and decrease in SMN2 Δ7 mRNA relative to those in cells treated with vehicle control are determined from real-time PCR data using a modified ΔΔCt method (as described in Livak and Schmittgen, Methods, 2001, 25:402-8). The amplification efficiency (E) is calculated from the slope of the amplification curve for SMN2 FL, SMN2 Δ7, and GAPDH individually. The abundances of SMN2 FL, SMN2 Δ7, and GAPDH are then calculated as (1+E)^−Ct, where Ct is the threshold value for each amplicon. […]

On to `Cc1cn2cc(-c3cc4ccc(N5CCN(C)CC5)cc4c(=O)o3)nc2c(C)n1` [Cpd 65, 3-(6,8-dimethylimidazo[1,2-a]pyrazin-2-yl)-7-(4-methylpiperazin-1-yl)-1H-isochromen-1-one], for which the “SMN2 FL mRNA relative to vehicle” value is given as “progressively more SMN2 FL mRNA” and the “SMN2 Δ7 mRNA relative to vehicle” value is “less SMN2 Δ7 mRNA”.

`Cc1cn2cc(-c3cc4ccc(N5CCN6CCC[C@H]6C5)cc4c(=O)o3)nc2c(C)n1` [Cpd 69, 3-(6,8-dimethylimidazo[1,2-a]pyrazin-2-yl)-7-[(8aS)-hexahydropyrrolo[1,2-a]pyrazin-2(1H)-yl]-1H-isochromen-1-one]: the “SMN2 FL mRNA relative to vehicle” value is listed as “progressively more SMN2 FL mRNA” and the “SMN2 Δ7 mRNA relative to vehicle” value is given as “less SMN2 Δ7 mRNA”.
